# Laboratory results published in publication PMC6131539, “Behavioral Effects of a Potential Novel TAAR1 Antagonist” (Frontiers in Pharmacology, 2018).
# Experiments:
# VTA dopamine neurons = test: Electrophysiology: spontaneous firing of VTA dopamine neurons in slices; format: cell-based, C57Bl/6J mice; conditions: 100 μM, bath applied 5 min; percentage of baseline
# Experimental: All electrophysiological recordings were performed in slice preparations from C57Bl/6J mice (P21-P30). Briefly, mice were anaesthetized with isoflurane and transcardially perfused with an ice-cold sucrose solution containing (in mM): 50 sucrose, 26.2 NaHCO3, 1.25 glucose, 4.9 MgCl2, 3 kynurenic acid, 0.1 CaCl2, and 1.32 ascorbic acid in bicarbonate-buffered solution (aCSF, described below). Mice were then decapitated and brains were extracted. […] Cells were visualized on an upright microscope using “Dodt-type” gradient contrast infrared optics ([Dodt et al., 2002]) and whole-cell recordings were made using a MultiClamp 700B amplifier (Axon Instruments, Union City, CA, United States). Recording electrodes (3–5 MΩ) were filled with (in mM): 136 potassium-D-gluconate, 4 MgCl2, 1.1 HEPES, 5, EGTA, 10 sodium creatine phosphate, 3.4 Mg-ATP, and 0.1 Na2GTP. […] Spontaneous firing activity was recorded in current-clamp mode. […] Firing data for all neurons was analyzed with the MiniAnalysis program (Synaptosoft) using the same criteria. Drug-induced changes in firing are expressed as a percentage of baseline. Drug effects were calculated by comparing the response during the baseline/pre-drug period to the response 5 min after onset of drug administration. […] We therefore assessed the effects of compound 22 on firing rate of dopamine neurons. […]
# C57BL/6J mice = test: Cocaine-induced locomotor activity, co-injection, C57BL/6J mice; format: in vivo; conditions: 60 min
# Experimental: (§1) Experimentally naïve mice, of at least 12 weeks of age, were used for all behavioral experiments. The mice were randomly assigned to treatment or control groups, balanced by sex and weight. Locomotor activity was assessed using the automated locomotor analysis monitors (Omnitech Electronics, Columbus, OH, United States). The apparatus included four open field monitors. Each Open Field monitor consisted of sets of 16 light beams arrayed in the horizontal X and Y axes. The hardware detected beams broken by the animal, which allowed the software to determine the location of the mouse in the cage. Total distance covered by mice was used to characterize locomotor activity of the animals. The monitors were divided into four compartments (20 cm × 20 cm). Animals were tested individually for defined periods with 5-min intervals. The mice were first weighed and then placed into the apparatus, allowing for 30 min habituation. Following the habituation, the mice were removed from the al apparatus and injected with drugs (see below for administration) or vehicle and returned immediately to the locomotor chamber. The locomotor activity was then measured for additional 1 h. After the experiments, the animals were euthanized by cervical dislocation.
# All drug solutions were prepared freshly on the day of the experiment and injected i.p. at the volume of 10 ml/kg. […] Amphetamine was dissolved in 0.9% saline at a concentration of 0.2 mg/mL.
# Since compound 22 enhanced amphetamine-induced locomotor response, we assessed if compound 22 could also enhance cocaine-induced locomotion in WT C57BL/6J mice (Figure 3).
# The locomotor activity was assessed for 60 min after the injection. […] Data are means ± SEM; N = 7–9. One way ANOVA was performed [F(3,28) = 7.138, p = 0.001] followed by Dunnett’s post hoc analyses (^∗p < 0.05, ^∗∗∗p < 0.001).
# [1] = system: WT littermates (C57BL/6J × 129S2/Sv); test: Basal locomotor activity in WT littermates of TAAR1-KO mice; format: in vivo; conditions: 5 and 25 mg/kg alone, 60 min
# Experimental: as §1, with “The Taarl^-/- (TAAR1-KO) mice were obtained from Lundbeck ([Wolinsky et al., 2007]). All wild type (WT) and TAAR1-KO mice used for experiments were generated from TAAR1-KO heterozygous mice in a C57BL/6J x 129S1/Sv mixed background. Experimentally” for “Experimentally”, “Following the habituation, the mice were removed from the al apparatus and injected with drugs (see below for administration) or vehicle and returned immediately to the locomotor chamber.” left out, “[…] The locomotor activity was assessed for 60 min following” for “After”, “injection. […]” for “experiments, the animals were euthanized by cervical dislocation.”
structure (smiles),measurement,setting,value
Clc1ccc(CNCc2ccc(Cn3cncn3)cc2)c(Cl)c1 [compound 22],increase in firing rate of dopaminergic neurons from VTA,VTA dopamine neurons,88%
same,increase in cocaine-induced locomotor activity,"C57BL/6J mice; 5 mg/kg i.p. co-injected with cocaine 10 mg/kg, p = 0.03",77%
same,increase in cocaine-induced locomotor activity,"C57BL/6J mice; 15 mg/kg i.p. co-injected with cocaine 10 mg/kg, p = 0.02",84%
same,increase in cocaine-induced locomotor activity,"C57BL/6J mice; 25 mg/kg i.p. co-injected with cocaine 10 mg/kg, p = 0.003",124%
same,effect on basal locomotor activity,[1],did not significantly alter
